The values below are quoted from earlier work in US8637323B2, “Fluorescent nitric oxide probes and associated methods” (Board of Regents, The University of Texas System, priority 2010, dated 2014).

For data set [1] the following is noted: calculated with published photophysical parameters.

Consider `CC(=O)Oc1ccc2c(c1)Oc1cc(OC(C)=O)ccc1C21OC(=O)c2cc(N)c(N)cc21` [DAF-2 DA], for which the “NO concentration giving a fluorescence signal comparable to 1 mM DHA” value is listed as roughly 300 nM. The fluorescence enhancement result in data set [1] is recorded as “ca. 200 fold”.
